Each structure is given as a SMILES string.

The first assay deals with Cotton Aphid (Aphis gossypii). Kind of assay: Cotton aphid (Aphis gossypii) mortality on dipped cotton plants. It counts as in vivo. To be noted: 120 h, cotton cotyledons dipped, aphid mortality after 5 days, read-out: mortality in comparison with untreated controls. The method, then:
I. Cotton Aphid (Aphis gossypii)
Cotton plants in the cotyledon stage (variety ‘Delta Pine’) are infested with approximately 100 laboratory-reared aphids by placing infested leaf sections on top of the test plants. The leaf sections are removed after 24 hours. The cotyledons of the intact plants are dipped into gradient solutions of the test compound. Aphid mortality on the treated plants, relative to mortality on check plants, is determined after 5 days.
A word on the mortality: it is the percentage killed. Consider `Cc1cc(C)cc(CC(NC2=NCCS2)c2cccs2)c1` (racemic) [Example 22, (4,5-Dihydro-thiazol-2-yl)-[2-(3,5-dimethyl-phenyl)-1-thien-2-yl-ethyl]-amine], for which the mortality at 300 ppm is more than 70%.

For the compound `Cc1cc(C)cc(CC(NC(=S)NCCO)c2cccs2)c1` (racemic) [Example 6, 1-[2-(3,5-Dimethyl-phenyl)-1-thien-2-yl-ethyl]-3-(2-hydroxy-ethyl)-thiourea], the mortality at 300 ppm was more than 70%.

Regarding `Cc1cc(C)cc(CC(NC2=NCCS2)c2ccco2)c1` (racemic) [Example 23, (4,5-Dihydro-thiazol-2-yl)-[2-(3,5-dimethyl-phenyl)-1-furan-2-yl-ethyl]-amine], the mortality at 300 ppm is more than 70%.

A further assay relates to Green Peach Aphid (Myzus persicae). Kind of assay: Green peach aphid (Myzus persicae) mortality on dipped pepper plants. The following applies: 120 h, pepper leaves dipped, aphid mortality after 5 days, read-out: mortality in comparison with untreated controls. Type of assay: in vivo. On the procedure: II. Green Peach Aphid (Myzus persicae)
Pepper plants in the 2nd leaf-pair stage (variety ‘California Wonder’) are infested with approximately 40 laboratory-reared aphids by placing infested leaf sections on top of the test plants. The leaf sections are removed after 24 hours. The leaves of the intact plants are dipped into gradient solutions of the test compound. Aphid mortality on the treated plants, relative to mortality on check plants, is determined after 5 days.
On to `Cc1cc(C)cc(CC(NC2=NCCS2)c2cccs2)c1` (racemic) [Example 22, (4,5-Dihydro-thiazol-2-yl)-[2-(3,5-dimethyl-phenyl)-1-thien-2-yl-ethyl]-amine], for which the mortality at 300 ppm was more than 70%.

Take `Cc1cc(C)cc(CC(NC(=S)NCCO)c2cccs2)c1` (racemic) [Example 6, 1-[2-(3,5-Dimethyl-phenyl)-1-thien-2-yl-ethyl]-3-(2-hydroxy-ethyl)-thiourea]: the mortality at 300 ppm is more than 70%.

Regarding `Cc1cc(C)cc(CC(NC2=NCCS2)c2ccco2)c1` (racemic) [Example 23, (4,5-Dihydro-thiazol-2-yl)-[2-(3,5-dimethyl-phenyl)-1-furan-2-yl-ethyl]-amine], the mortality at 300 ppm is more than 70%.

The values above are taken from US7989394B2, “Substituted 1-(azolin-2-yl)-amino-2-aryl-1-hetaryl-ethane compounds” (BASF SE, priority 2006, dated 2011).
